From patent US7659426B2, “Target protein of anticancer agent and novel anticancer agent (spnal) corresponding thereto” (Reverse Proteomics Research Institute Co., Ltd., priority 2003, dated 2010)
“Also recorded” adds a separate entry of the source.

Legend:
[1] = target: T1, KSRP (MARTA1, a rat protein having a high homology to KSRP) (Rattus norvegicus, UniProt Q99PF5); test: Binding experiments: compound-immobilized resins with rat brain lysate, SDS gel (FIG. 1); details: 4° C.
T1 construct: from tissue; host or cells: rat brain
T1 sequence (Q99PF5 1-721): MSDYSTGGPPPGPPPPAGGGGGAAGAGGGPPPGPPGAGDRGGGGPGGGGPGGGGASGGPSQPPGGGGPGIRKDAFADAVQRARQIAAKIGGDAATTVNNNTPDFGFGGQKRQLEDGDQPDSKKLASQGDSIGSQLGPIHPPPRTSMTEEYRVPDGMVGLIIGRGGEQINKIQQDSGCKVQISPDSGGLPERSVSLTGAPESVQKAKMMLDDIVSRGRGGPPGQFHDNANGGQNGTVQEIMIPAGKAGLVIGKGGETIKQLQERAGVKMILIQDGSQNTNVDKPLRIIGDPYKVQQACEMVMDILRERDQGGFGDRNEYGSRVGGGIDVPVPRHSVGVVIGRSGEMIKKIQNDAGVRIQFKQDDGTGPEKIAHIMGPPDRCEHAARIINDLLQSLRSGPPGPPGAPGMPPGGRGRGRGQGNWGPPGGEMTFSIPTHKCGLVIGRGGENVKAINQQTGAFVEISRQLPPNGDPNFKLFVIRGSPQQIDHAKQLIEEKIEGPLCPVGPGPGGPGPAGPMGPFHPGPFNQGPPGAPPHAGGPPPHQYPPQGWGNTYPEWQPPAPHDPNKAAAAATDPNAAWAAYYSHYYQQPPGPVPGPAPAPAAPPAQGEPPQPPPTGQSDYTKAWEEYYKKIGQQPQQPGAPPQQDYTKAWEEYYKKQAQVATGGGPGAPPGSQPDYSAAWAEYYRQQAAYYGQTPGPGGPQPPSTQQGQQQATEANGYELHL
Protocol: The rat brain (2.4 g) was mixed in a mixture A (25 mM Tris-HCl pH 8.0, 0.5% Tween 20, 300 μM DCC (24 ml; N,N-diethyldithiocarbamate sodium)) and prepared as a homogenate, which was then centrifuged at 9,000 rpm for 10 minutes. The centrifugal supernatant was collected and further centrifuged at 50,000 rpm for 30 minutes. The supernatant thus obtained was used as the lysate.
Each resin (10 μl) and lysate (1 ml) were gently shaken at 4° C. for about 1 hour. Thereafter, centrifugal operation was performed, and each supernatant was collected carefully. Then, each supernatant was again mixed with a fresh compound-bound resin (10 μl). At this time, the separated compound-bound resin was kept to stand at 4° C. as the resin from the first binding experiment. After the mixture was gently stirred for about 3 hours, centrifugal operation was performed, and the supernatant was removed. Subsequently, the compound-bound resin obtained in the second binding experiment and the resin obtained in the first binding experiment were gently washed with mixture A about five times to remove substances other than the protein bound onto the resin to the maximum possible extent. […]

COX1 = COX1 (Homo sapiens, UniProt P23219); set-up: key to COX1 inhibitory effect: x: weak effect; ∘: definite inhibitory effect; details: cited from earlier work; for inhibitory effect on COX1: Cancer Research, 57, pp. 2909-2915 (1997)
COX2 = target: T2, COX2 (Homo sapiens, UniProt P35354); details: Cancer Research, 57, pp. 2909-2915 (1997); cited from earlier work
T2 sequence (P35354 18-604): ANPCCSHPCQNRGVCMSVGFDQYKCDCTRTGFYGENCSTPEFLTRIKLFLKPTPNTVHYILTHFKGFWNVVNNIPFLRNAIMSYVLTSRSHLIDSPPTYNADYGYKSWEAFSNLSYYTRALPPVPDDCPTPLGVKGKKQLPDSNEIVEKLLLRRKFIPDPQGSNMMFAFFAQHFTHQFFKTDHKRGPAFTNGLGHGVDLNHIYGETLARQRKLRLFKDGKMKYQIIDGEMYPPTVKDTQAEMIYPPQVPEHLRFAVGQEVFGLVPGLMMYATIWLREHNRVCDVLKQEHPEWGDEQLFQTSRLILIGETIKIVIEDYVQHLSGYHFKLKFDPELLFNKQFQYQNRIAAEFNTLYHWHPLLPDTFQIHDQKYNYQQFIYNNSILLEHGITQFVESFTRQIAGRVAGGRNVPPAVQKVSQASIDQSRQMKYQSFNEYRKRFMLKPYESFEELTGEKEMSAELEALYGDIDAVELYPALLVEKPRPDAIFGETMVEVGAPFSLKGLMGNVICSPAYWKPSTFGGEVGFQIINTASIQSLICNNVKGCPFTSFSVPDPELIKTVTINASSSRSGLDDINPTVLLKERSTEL

COX1, sequence (P23219 24-599): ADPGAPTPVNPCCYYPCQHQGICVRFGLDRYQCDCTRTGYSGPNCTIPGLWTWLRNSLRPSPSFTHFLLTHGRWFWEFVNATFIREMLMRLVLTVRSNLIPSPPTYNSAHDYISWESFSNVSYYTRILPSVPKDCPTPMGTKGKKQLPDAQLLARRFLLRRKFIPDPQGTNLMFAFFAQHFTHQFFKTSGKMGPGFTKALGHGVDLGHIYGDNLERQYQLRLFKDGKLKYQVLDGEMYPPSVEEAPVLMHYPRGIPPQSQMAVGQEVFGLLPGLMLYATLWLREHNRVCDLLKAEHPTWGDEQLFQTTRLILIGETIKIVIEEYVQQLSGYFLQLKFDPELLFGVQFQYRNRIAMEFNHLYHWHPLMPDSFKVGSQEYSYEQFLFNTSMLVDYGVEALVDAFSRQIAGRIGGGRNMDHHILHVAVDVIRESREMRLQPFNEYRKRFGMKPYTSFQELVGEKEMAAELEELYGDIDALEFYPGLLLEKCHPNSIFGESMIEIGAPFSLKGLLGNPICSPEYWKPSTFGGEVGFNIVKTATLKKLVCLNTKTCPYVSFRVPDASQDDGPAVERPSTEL

CSc1ccc(/C=C2/C(C)=C(CC(=O)O)c3cc(F)ccc32)cc1 [Sulindac sulfide]
binding of KSRP (MARTA1) to the compound-immobilized resin [1]: other than the resin immobilized with sulindac sulfide; also recorded: other than the resin wherein sulindac sulfide was immobilized

CC1=C(CC(=O)O)c2cc(F)ccc2/C1=C\c1ccc(S(C)(=O)=O)cc1 [Sulindac sulfone]
inhibitory effect on COX1 (COX1): only weak inhibitory effect
COX1 inhibitory effect (COX1): x
inhibitory effect on COX2 (COX2): only weak inhibitory effect

CC1=C(CC(=O)O)c2cc(F)ccc2/C1=C\c1ccc([S+](C)[O-])cc1 (centres unmarked) [Sulindac]
inhibitory effect on COX1 (COX1): only weak inhibitory effect
COX1 inhibitory effect (COX1): x
inhibitory effect on COX2 (COX2): only weak inhibitory effect

CC(=O)O[C@H]1C(=O)[C@@]2(C)[C@H]([C@H](OC(=O)c3ccccc3)[C@]3(O)C[C@H](OC(=O)[C@H](O)[C@@H](NC(=O)c4ccccc4)c4ccccc4)C(C)=C1C3(C)C)[C@]1(OC(C)=O)CO[C@@H]1C[C@@H]2O [Taxol]
binding of KSRP (MARTA1) to the compound-immobilized resin [1]: binds to KSRP
